Data on one compound can be found in ChEMBL document CHEMBL3045694, “Insecticidal activity and chemical composition of volatile oils from Hyptis martiusii Benth” (2003).

Holding throughout (format): functional
Assay [1] concerns Aedes aegypti. Nature of the assay: Larvicidal activity against third larval stage of Aedes aegypti assessed as mortality at 100 mg/L after 24 hr.
Assay [2] deals with Bemisia argentifolii. As to the kind of experiment: Insecticidal activity against adult Bemisia argentifolii reared on compound-treated melon leaves assessed as mortality at 1000 mg/L applied as spray after 72 hr.
Assay [3] has as its system Aedes aegypti. As to the kind of experiment: Larvicidal activity against third larval stage of Aedes aegypti assessed as mortality at 250 mg/L after 24 hr.
Assay [4] concerns Aedes aegypti. As to the kind of experiment: Larvicidal activity against third larval stage of Aedes aegypti assessed as mortality at 500 mg/L after 24 hr.
The subject of assay [5] is Bemisia argentifolii. Nature of the assay: Insecticidal activity against adult Bemisia argentifolii reared on compound-treated melon leaves assessed as layed eggs at 1000 mg/L applied as spray after 72 hr.
The subject of assay [6] is Aedes aegypti. As to the kind of experiment: Larvicidal activity against third larval stage of Aedes aegypti assessed as mortality at 50 mg/L after 24 hr.
The test system of assay [7] is Aedes aegypti. As to the kind of experiment: Larvicidal activity against third larval stage of Aedes aegypti assessed as mortality at 25 mg/L after 24 hr.

As for `CC12CCC(CC1)C(C)(C)O2` [EUCALYPTOL], the mortality (commonly the percentage killed) at 100 µg/mL in assay [1] came to 100%. For the same compound, the mortality at 1000 µg/mL in assay [2] came out at 91.2%. The mortality at 250 µg/mL in assay [3] worked out at 100%. For the same compound, the mortality at 500 µg/mL in assay [4] came to 100%. Moreover, the Activity in assay [5] came to 9.2%. Moreover, the mortality at 50 µg/mL in assay [6] was 53%. Besides, the mortality at 25 µg/mL in assay [7] came out at 10%.
